Where two headings read alike, the source gives them in different places.

This test has as its system human vascular endothelial cell lines. As to the kind of experiment: Inhibition of radiation-induced endothelial cell transition (EndMT), phalloidin immunofluorescence staining. Type of test: cell-based. Particulars: 10 uM test substance 1 hour before 10 Gy irradiation, 72 hours after irradiation, relative ratio with IR group (10 Gy alone) as 100%; for activity at 10 µM: Homo sapiens, Endothelial cell, light or radiation study. On the procedure:
Test substances (Examples 1 to 45) were treated with a 10 mM DMSO solution at a ratio of 1 µL per 1 mL of cell culture medium to a final concentration of 10 uM, and the test substances were treated 1 hour before irradiation on human vascular endothelial cell lines (Promocell, Germany), and then, it was irradiated at an intensity of 10 Gy. 72 hours after irradiation, the human vascular endothelial cell lines were fixed with 10% formalin, and the experiment was conducted according to the manufacturer's method using phalloidin (Invitrogen, USA) to confirm the cytoskeleton filaments that increase during fibrosis. Phalloidin is a protein that binds to the actin of cytoskeleton filaments, and phalloidin conjugated with FITC fluorescent substance made the cytoskeleton filaments appear green when observed under a microscope.
After treatment with the test substance, the area, length and density of phalloidin were measured by using a confocal microscope, and the relative ratio was expressed with the irradiated group (IR group) that was irradiated with 10 Gy alone as 100% (Table 1).

For the compound `N#Cc1cccc2c1CC[C@H]2Nc1nc(Cl)nc2c1ncn2[C@@H]1SC[C@@H](O)[C@H]1O` [Example 24, (1R)-1-[[2-chloro-9-[(2R,3R,4S)-3,4-dihydroxytetrahydrothiophen-2-yl]purin-6-yl]amino]indane-4-carbonitrile], the activity at 10 µM by setting is: (read-out: Palloidin Area) 50 to 80%; (read-out: Palloidin Intensity) 50 to 80%; (read-out: Palloidin Length) 50 to 80%.
With `NC(=O)c1cccc2c1CC[C@H]2Nc1nc(Cl)nc2c1ncn2[C@@H]1SC[C@@H](O)[C@H]1O` [Example 25, (R)-1-((2-chloro-9-((2R,3R,4S)-3,4-dihydroxytetrahydrothiophen-2-yl)-9H-purin-6-yl)amino)-2,3-dihydro-1H-indene-4-carboxamide], the activity at 10 µM reads like this: (read-out: Palloidin Area) greater than 80%; (read-out: Palloidin Intensity) greater than 80%; (read-out: Palloidin Length) greater than 80%.
Turning to `O[C@@H]1[C@H](O)CS[C@H]1n1cnc2c(N[C@@H]3CCc4cccc(Br)c43)nc(Cl)nc21` [Example 26, (2R,3R,4S)-2-[2-chloro-6-[[(1R)-7-bromoindan-1-yl]amino]purin-9-yl]tetrahydrothiophene-3,4-diol], the activity at 10 µM by setting is: (read-out: Palloidin Area) 20 to 50%; (read-out: Palloidin Intensity) 50 to 80%; (read-out: Palloidin Length) 50 to 80%.
As to `Cc1ccc2c(c1)CC[C@H]2Nc1nc(Cl)nc2c1ncn2[C@@H]1SC[C@@H](O)[C@H]1O` [Example 27, (2R,3R,4S)-2-[2-chloro-6-[[(1R)-5-methylindan-1-yl]amino]purin-9-yl]tetrahydrothiophene-3,4-diol], the activity at 10 µM was greater than 80% (read-out: Palloidin Area), greater than 80% (read-out: Palloidin Intensity) and greater than 80% (read-out: Palloidin Length).
With `O[C@@H]1[C@H](O)CS[C@H]1n1cnc2c(N[C@@H]3CCc4cc(C(F)(F)F)ccc43)nc(Cl)nc21` [Example 28, (2R,3R,4S)-2-[2-chloro-6-[[(1R)-5-(trifluoromethyl)indan-1-yl]amino]purin-9-yl]tetrahydrothiophene-3,4-diol], the activity at 10 µM runs as follows: (read-out: Palloidin Area) 50 to 80%; (read-out: Palloidin Intensity) 50 to 80%; (read-out: Palloidin Length) greater than 80%.
For the compound `N#Cc1ccc2c(c1)CC[C@H]2Nc1nc(Cl)nc2c1ncn2[C@@H]1SC[C@@H](O)[C@H]1O` [Example 29, (1R)-1-[[2-chloro-9-[(2R,3R,4S)-3,4-dihydroxytetrahydrothiophen-2-yl]purin-6-yl]amino]indane-5-carbonitrile], the activity at 10 µM reads like this: (read-out: Palloidin Area) 50 to 80%; (read-out: Palloidin Intensity) 50 to 80%; (read-out: Palloidin Length) greater than 80%.
For `COC(=O)c1cccc2c1CC[C@H]2Nc1nc(Cl)nc2c1ncn2[C@@H]1SC[C@@H](O)[C@H]1O` [Example 30, Methyl (R)-1-((2-chloro-9-((2R,3R,4S)-3,4-dihydroxytetrahydrothiophen-2-yl)-9H-purin-6-yl)amino)-2,3-dihydro-1H-indene-4-carboxylate], the activity at 10 µM by setting is: (read-out: Palloidin Area) greater than 80%; (read-out: Palloidin Intensity) greater than 80%; (read-out: Palloidin Length) greater than 80%.
On to `COC(=O)c1ccc2c(c1)CC[C@H]2Nc1nc(Cl)nc2c1ncn2[C@@H]1SC[C@@H](O)[C@H]1O` [Example 31, Methyl (R)-1-((2-chloro-9-((2R,3R,4S)-3,4-dihydroxytetrahydrothiophen-2-yl)-9H-purin-6-yl)amino)-2,3-dihydro-1H-indene-5-carboxylate], for which the activity at 10 µM runs as follows: (read-out: Palloidin Area) greater than 80%; (read-out: Palloidin Intensity) greater than 80%; (read-out: Palloidin Length) greater than 80%.
As to `O=C(O)c1cccc2c1CC[C@H]2Nc1nc(Cl)nc2c1ncn2[C@@H]1SC[C@@H](O)[C@H]1O` [Example 32, (R)-1-((2-chloro-9-((2R,3R,4S)-3,4-dihydroxytetrahydrothiophen-2-yl)-9H-purin-6-yl)amino)-2,3-dihydro-1H-indene-4-carboxylic acid], the activity at 10 µM is greater than 80% (read-out: Palloidin Area), greater than 80% (read-out: Palloidin Intensity) and greater than 80% (read-out: Palloidin Length).
For the compound `O=C(O)c1ccc2c(c1)CC[C@H]2Nc1nc(Cl)nc2c1ncn2[C@@H]1SC[C@@H](O)[C@H]1O` [Example 33, (R)-1-((2-chloro-9-((2R,3R,4S)-3,4-dihydroxytetrahydrothiophen-2-yl)-9H-purin-6-yl)amino)-2,3-dihydro-1H-indene-5-carboxylic acid], the activity at 10 µM is greater than 80% (read-out: Palloidin Area), greater than 80% (read-out: Palloidin Intensity) and greater than 80% (read-out: Palloidin Length).
In the case of `NC(=O)c1ccc2c(c1)CC[C@H]2Nc1nc(Cl)nc2c1ncn2[C@@H]1SC[C@@H](O)[C@H]1O` [Example 34, (R)-1-((2-chloro-9-((2R,3R,4S)-3,4-dihydroxytetrahydrothiophen-2-yl)-9H-purin-6-yl)amino)-2,3-dihydro-1H-indene-5-carboxamide], the “Palloidin Length” value is “+ +”. The activity at 10 µM (read-out: Palloidin Area) was greater than 80%. Where the note is “read-out: Palloidin Intensity”, the activity at 10 µM was greater than 80%.
As to `O[C@@H]1[C@H](O)CS[C@H]1n1cnc2c(NC3CCc4ccccc4C3)nc(Cl)nc21` (stereo partly drawn) [Example 35, (2R,3R,4S)-2-(2-chloro-6-((1,2,3,4-tetrahydronaphthalen-2-yl)amino)-9H-purin-9-yl)tetrahydrothiophene-3,4-diol], the activity at 10 µM is greater than 80% (read-out: Palloidin Area), greater than 80% (read-out: Palloidin Intensity) and greater than 80% (read-out: Palloidin Length).
In the case of `O[C@@H]1[C@H](O)CS[C@H]1n1cnc2c(N[C@H]3CCc4ccccc4C3)nc(Cl)nc21` [Example 36, (2R,3R,4S)-2-(2-chloro-6-(((S)-1,2,3,4-tetrahydronaphthalen-2-yl)amino)-9H-purin-9-yl)tetrahydrothiophene-3,4-diol], the activity at 10 µM (read-out: Palloidin Area) is greater than 80%, the activity at 10 µM (read-out: Palloidin Intensity) is greater than 80% and the activity at 10 µM (read-out: Palloidin Length) was greater than 80%.
For the compound `O[C@@H]1[C@H](O)CS[C@H]1n1cnc2c(N[C@@H]3CCc4ccccc4C3)nc(Cl)nc21` [Example 37, (2R,3R,4S)-2-(2-chloro-6-(((R)-1,2,3,4-tetrahydronaphthalen-2-yl)amino)-9H-purin-9-yl)tetrahydrothiophene-3,4-diol], the activity at 10 µM by setting is: (read-out: Palloidin Area) 50 to 80%; (read-out: Palloidin Intensity) 50 to 80%; (read-out: Palloidin Length) greater than 80%.
As to `O[C@@H]1[C@H](O)CS[C@H]1n1cnc2c(NC3CCCc4ccccc43)nc(Cl)nc21` (stereo partly drawn) [Example 38, (2R,3R,4S)-2-(2-chloro-6-((1,2,3,4-tetrahydronaphthalen-1-yl)amino)-9H-purin-9-yl)tetrahydrothiophene-3,4-diol], the activity at 10 µM (read-out: Palloidin Area) is greater than 80%, the activity at 10 µM (read-out: Palloidin Intensity) was greater than 80% and the activity at 10 µM (read-out: Palloidin Length) was greater than 80%.
On to `O[C@@H]1[C@H](O)CS[C@H]1n1cnc2c(N[C@@H]3CCCc4ccccc43)nc(Cl)nc21` [Example 39, (2R,3R,4S)-2-(2-chloro-6-(((R)-1,2,3,4-tetrahydronaphthalen-1-yl)amino)-9H-purin-9-yl)tetrahydrothiophene-3,4-diol], for which the activity at 10 µM is greater than 80% (read-out: Palloidin Area), greater than 80% (read-out: Palloidin Intensity) and greater than 80% (read-out: Palloidin Length).
For the compound `O[C@@H]1[C@H](O)CS[C@H]1n1cnc2c(N[C@H]3CCCc4ccccc43)nc(Cl)nc21` [Example 40, (2R,3R,4S)-2-(2-chloro-6-(((S)-1,2,3,4-tetrahydronaphthalen-1-yl)amino)-9H-purin-9-yl)tetrahydrothiophene-3,4-diol], the activity at 10 µM (read-out: Palloidin Area) was greater than 80%, the activity at 10 µM (read-out: Palloidin Intensity) is greater than 80% and the activity at 10 µM (read-out: Palloidin Length) is greater than 80%.
As for `O[C@@H]1[C@H](O)CS[C@H]1n1cnc2c(N[C@@H]3Cc4ccccc43)nc(Cl)nc21` [Example 41, (2R,3R,4S)-2-(6-(((R)-bicyclo[4.2.0]octa-1(6),2,4-trien-7-yl)amino)-2-chloro-9H-purin-9-yl)tetrahydrothiophene-3,4-diol], the activity at 10 µM (read-out: Palloidin Area) is greater than 80%, the activity at 10 µM (read-out: Palloidin Intensity) fell in the range of 50 to 80% and the activity at 10 µM (read-out: Palloidin Length) is greater than 80%.
For the compound `O[C@@H]1[C@H](O)CS[C@H]1n1cnc2c(NC3CCCCc4ccccc43)nc(Cl)nc21` (stereo partly drawn) [Example 42, (2R,3R,4S)-2-(2-chloro-6-((6,7,8,9-tetrahydro-5H-benzo[7]annulen-5-yl)amino)-9H-purin-9-yl)tetrahydrothiophene-3,4-diol], the activity at 10 µM runs as follows: (read-out: Palloidin Area) greater than 80%; (read-out: Palloidin Intensity) greater than 80%; (read-out: Palloidin Length) greater than 80%.
On to `O[C@@H]1[C@H](O)CS[C@H]1n1cnc2c(NC3CCc4ccccc4CC3)nc(Cl)nc21` [Example 43, (2R,3R,4S)-2-(2-chloro-6-((6,7,8,9-tetrahydro-5H-benzo[7]annulen-7-yl)amino)-9H-purin-9-yl)tetrahydrothiophene-3,4-diol], for which the activity at 10 µM is greater than 80% (read-out: Palloidin Area), greater than 80% (read-out: Palloidin Intensity) and greater than 80% (read-out: Palloidin Length).
`O[C@@H]1[C@H](O)CS[C@H]1n1cnc2c(N[C@@H]3CCc4ccccc43)nc(I)nc21` [Example 44, (2R,3R,4S)-2-(6-(((R)-2,3-dihydro-1H-inden-1-yl)amino)-2-iodo-9H-purin-9-yl)tetrahydrothiophene-3,4-diol]: the activity at 10 µM is 20 to 50% (read-out: Palloidin Area), 20 to 50% (read-out: Palloidin Intensity) and 20 to 50% (read-out: Palloidin Length).
